Test results as given in patent US6747021B2, “Cryptophycin compound” (Eli Lilly and Company, priority 2000, dated 2004).
Where two headings read alike, the source gives them in different places.

Assays:
[1] = system: HUMAN COLON ADENOCARCINOMA 15; type: in vivo; conditions: Balb/C SCID female mice
Text: (§1) Inhibition of tumors transplanted into mice is an accepted procedure for studying the efficacy of antitumor agents (Corbett, et al., In vivo Methods for Screening and Preclinical Testing; Use of rodent solid tumors for drug discovery., In: Anticancer Drug Development Guide: Preclinical Screening, Clinical Trials, and Approval, B. Teicher (ed), Humana Press Inc., Totowa, N.J., Chapter 5, pages 75-99 (1997); (Corbett, et al., Int. J. Pharmacog., 33, Supplement, 102-122 (1995)). Murine tumors or human xenographs were implanted essentially as described by Corbett in In vivo Methods for Screening and Preclinical Testing; Use of rodent solid tumors for drug discovery. Briefly, the murine tumor or human xenograph was implanted subcutaneously using either 12-gauge trocar implants or counted number of cells. The location for the trocar insertion is midway between the axillary and inguinal region along the side of the mouse. The trocar is slipped approximately ¾ of an inch subcutaneously up toward the axilla before discharging the tumor fragment, and pinching the skin as the trocar is removed. Alternatively, human tumor cells prepared from a […] of donor tumors (5×10^6 cells) were implanted subcutaneously in a hind-leg of a male or female nude mouse (Charles River). Either a test compound in vehicle or vehicle alone was administered by intravenous bolus injection (iv), intraperitoneal injection (ip), or oral gavage (po). Each treatment group, as well as a group of untreated control animals, consisted of five animals per group in each experiment. Subcutaneous tumor response was monitored by tumor volume measurement performed twice each week over the course of the experiment (60-120 days). Body weights were taken as a general measure of toxicity. The subcutaneous tumor data were analyzed by determining the median tumor weight for each treatment group over the course of the experiment and calculating the tumor growth delay as the difference in days for the treatment versus the control tumors to reach a volume of either 500 or 1000 mm^3.
(§2) Cryptophycin-309 (309) was tested against a variety of murine and human tumors substantially as described supra. Cryptophycin-55 glycinate (55-GLY), Taxol, and Adriamycin (Adria) were also included in certain tests for purposes of comparison. Cryptophycin 55 glycinate is known in the art (WO 98/08505, Example 9) and has the following structure: [drawing 9]
(§3) Tumor Weight(mg)=(a×b^2)/2 where a=tumor length (mm) and b=tumor width (mm).
(§4) Tumor Growth Delay=T−C where T is the median time (days) required for the treatment group tumors to reach a predetermined size, and C is the median time (days) for the control group tumors to reach the same size. Tumor-free survivors are excluded from this calculation, and are tabulated separately (Tumor Free).
(§5) Log Kill=Tumor Growth Delay/(3.32)(Td)
(§6) where Tumor Growth Delay is as previously defined and Td is tumor volume doubling time (days), estimated from the best fit straight line from a log-linear growth plot of the control group of tumors in exponential growth (100-800 mg range)
(§7) %T/C mass—The treatment and control groups are measured when the control group tumors reach approximately 700 to 1200 mg in size (median group). The median tumor weight of each group is determined (including zeros). The T/C value in percent is an indication of antitumor effectiveness. A T/C≦42% is considered significant antitumor activity. A T/C<10% is considered to indicate highly significant antitumor activity.
(§8) Body Weight Loss Nadir—A body weight loss nadir (mean of group) of greater than 20% or drug deaths greater than 20% are considered to indicate an excessively toxic dosage in single course trials.
(§9) Activity Rating—the Activity Rating is derived from the Log Kill according to the following table: […]

[2] = system: HUMAN COLON ADEN[…]-116; experiment: Early stage human colon adenocarcinoma HCT-116 xenograft assay; type: in vivo; conditions: Balb/C SCID female mice
Text: as §1, §2, §3, §4, §5, §6, §7, §8, §9

[3] = system: MAMMARY ADENOCARCINOMA-17/ADR/Resist.; type: in vivo, murine; conditions: C3H female mice
Text: as §1, §2, §3, §4, §5, §6, §7, §8, §9

[4] = system: MAMMARY ADENOCARCINOMA 16/C; type: in vivo, murine; conditions: C3H/HeN female mice
Text: as §1, §2, §3, §4, §5, §6, §7, §8, §9

[5] = system: PANCREATIC DUCTAL ADENOCARCINOMA #02; type: in vivo, murine; conditions: BDF1 female mice, experiment ##
Text: as §1, §2, §3, §4, §5, §6, §7, §8, §9

[6] = system: MAMMARY ADENOCARCINOMA-16/C/Adr; experiment: Early stage murine mammary adenocarcinoma-16/C/Adr subcutaneous tumor assay; type: in vivo; conditions: C3H female mice
Text: as §1, §2, §3, §4, §5, §6, §7, §8, §9

[7] = IV 28 mg/kg/inj days 3,5,7,9,11, total dose 140 mg/kg
[8] = IV 32 mg/kg/inj twice/day days 3,5,7,9,11, total dose 320 mg/kg
[9] = IV 42 mg/kg/inj days 3,5,7,9,11, total dose 210 mg/kg
[10] = IV 28 mg/kg/inj days 1,3,5,7,9, total dose 140 mg/kg
[11] = IV 42 mg/kg/inj days 1,3,5,7,9, total dose 210 mg/kg
[12] = IV 42 mg/kg/inj days 1,3,7,9, total dose 168 mg/kg

COc1ccc(C[C@H]2NC(=O)/C=C/C[C@@H]([C@H](C)[C@@H](OC(=O)CN)[C@@H](Cl)c3ccccc3)OC(=O)[C@H](CC(C)C)OC(=O)C(C)(C)CNC2=O)cc1Cl [Cryptophycin 55-GLY, Cryptophycin-55 glycinate]
% T/C MASS [1, 7]: 15%
ACTIVITY RATING [1, 7]: +++ (2.0-2.8)
DRUG DEATHS [1, 7]: 0/5
GROWTH DELAY [1, 7]: 21.5 days
LOG KILL [1, 7]: 2.2
MEDIAN TUMOR WEIGHT [1, 7]: 171 mg
% T/C MASS [1, 8]: 0%
ACTIVITY RATING [1, 8]: ++++ (>2.8)
DRUG DEATHS [1, 8]: 0/5
GROWTH DELAY [1, 8]: 56 days
LOG KILL [1, 8]: 4.0
MEDIAN TUMOR WEIGHT [1, 8]: 0 mg
% T/C MASS [1, 9]: 5.5%
ACTIVITY RATING [1, 9]: +++ (2.0-2.8)
DRUG DEATHS [1, 9]: 0/5
GROWTH DELAY [1, 9]: 21.5 days
LOG KILL [1, 9]: 2.2
MEDIAN TUMOR WEIGHT [1, 9]: 63 mg
% T/C MASS [2, 7]: 5.5%
ACTIVITY RATING [2, 7]: +++ (2.0-2.8)
DRUG DEATHS [2, 7]: 0/5
GROWTH DELAY [2, 7]: 22 days
LOG KILL [2, 7]: 2.65
MEDIAN TUMOR WEIGHT [2, 7]: 63 mg
% T/C MASS [2, 8]: 0%
ACTIVITY RATING [2, 8]: ++++ (>2.8)
DRUG DEATHS [2, 8]: 0/4
GROWTH DELAY [2, 8]: 35 days
LOG KILL [2, 8]: 4.2
MEDIAN TUMOR WEIGHT [2, 8]: 0 mg
% T/C MASS [2, 9]: 0%
ACTIVITY RATING [2, 9]: ++++ (>2.8)
DRUG DEATHS [2, 9]: 0/5
GROWTH DELAY [2, 9]: 25 days
LOG KILL [2, 9]: 3.0
MEDIAN TUMOR WEIGHT [2, 9]: 0 mg
% T/C MASS [3, 10]: 24%
ACTIVITY RATING [3, 10]: ++ (1.3-1.9)
DRUG DEATHS [3, 10]: 0/5
GROWTH DELAY [3, 10]: 5.25 days
LOG KILL [3, 10]: 1.6
MEDIAN TUMOR WEIGHT [3, 10]: 577 mg
% T/C MASS [3, 11]: 0%
ACTIVITY RATING [3, 11]: +++ (2.0-2.8)
DRUG DEATHS [3, 11]: 0/5
GROWTH DELAY [3, 11]: 7.6 days
LOG KILL [3, 11]: 2.3
MEDIAN TUMOR WEIGHT [3, 11]: 0 mg
% T/C MASS [4, 7]: 0%
ACTIVITY RATING [4, 7]: ++++ (>2.8)
DRUG DEATHS [4, 7]: 0/5
GROWTH DELAY [4, 7]: 15 days
LOG KILL [4, 7]: 3.5
MEDIAN TUMOR WEIGHT [4, 7]: 0 mg
% T/C MASS [4, 9]: 0%
ACTIVITY RATING [4, 9]: ++++ (>2.8)
DRUG DEATHS [4, 9]: 0/5
GROWTH DELAY [4, 9]: 17.5 days
LOG KILL [4, 9]: 4.1
MEDIAN TUMOR WEIGHT [4, 9]: 0 mg
% T/C MASS [5, 10]: 9%
ACTIVITY RATING [5, 10]: ++ (1.3-1.9)
DRUG DEATHS [5, 10]: 0/5
GROWTH DELAY [5, 10]: 13 days
LOG KILL [5, 10]: 1.8
MEDIAN TUMOR WEIGHT [5, 10]: 95 mg
% T/C MASS [5, 11]: 0%
ACTIVITY RATING [5, 11]: +++ (2.0-2.8)
DRUG DEATHS [5, 11]: 0/5
GROWTH DELAY [5, 11]: 16 days
LOG KILL [5, 11]: 2.2
MEDIAN TUMOR WEIGHT [5, 11]: 0 mg
% T/C MASS [6, 10]: 24%
ACTIVITY RATING [6, 10]: ++ (1.3-1.9)
DRUG DEATHS [6, 10]: 0/5
GROWTH DELAY [6, 10]: 6.2 days
LOG KILL [6, 10]: 1.7
MEDIAN TUMOR WEIGHT [6, 10]: 48 mg
% T/C MASS [6, 12]: 0%
ACTIVITY RATING [6, 12]: +++ (2.0-2.8)
DRUG DEATHS [6, 12]: 0/5
GROWTH DELAY [6, 12]: 7.8 days
LOG KILL [6, 12]: 2.1
MEDIAN TUMOR WEIGHT [6, 12]: 0 mg
